Test results from ChEMBL document CHEMBL2202969, “Discovery and evolution of phenoxypiperidine hydroxyamide dual CCR3/H₁ antagonists. Part I” (Bioorg Med Chem Lett, 2012).

How the values were obtained:
[1] = molecular target: T1, Histamine H1 receptor (Homo sapiens, UniProt P35367); assay: Displacement of [3H]-pyrilamine from human histamine H1 receptor expressed in recombinant CHOK1 cells after 1 hr; type: cell-based, CHO-K1
[2] = molecular target: T2, C-C chemokine receptor type 3 (Homo sapiens, UniProt P51677); assay: Displacement of [3H]-4-(2,4-dichloro-3-methylphenoxy)-l'-[4- (methylsulfonyl)benzoyl]-l,4'-bipiperidine from human recombinant CCR3 expressed in CHOK1 cells after 2 hrs by scintillation counting analysis; type: cell-based, CHO-K1
T2 sequence (P51677 whole entry): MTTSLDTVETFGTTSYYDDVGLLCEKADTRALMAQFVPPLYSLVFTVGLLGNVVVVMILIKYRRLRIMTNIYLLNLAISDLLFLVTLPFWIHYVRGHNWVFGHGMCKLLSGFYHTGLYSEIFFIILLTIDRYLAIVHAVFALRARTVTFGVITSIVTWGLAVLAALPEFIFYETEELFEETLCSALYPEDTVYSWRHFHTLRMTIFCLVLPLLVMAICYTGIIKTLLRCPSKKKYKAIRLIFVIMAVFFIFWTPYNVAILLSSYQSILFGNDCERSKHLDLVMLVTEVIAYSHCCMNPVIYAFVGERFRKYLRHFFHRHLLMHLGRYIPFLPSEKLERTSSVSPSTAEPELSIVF

[3] = molecular target: T3, C-C chemokine receptor type 3 (Homo sapiens) (UniProt P51677); assay: Displacement of [3H]-4-(2,4-dichloro-3-methylphenoxy)-l'-[4- (methylsulfonyl)benzoyl]-l,4'-bipiperidine from human recombinant CCR3 expressed in CHOK1 cells at 1 uM after 2 hrs by scintillation counting analysis; type: cell-based; conditions: CHO-K1
T3 sequence (whole entry): T2 sequence (P51677 whole entry)

[4] = in vitro; conditions: rat, hepatocytes
[5] = in vitro; conditions: rat
[6] = in vitro; conditions: human, hepatocytes
[7] = physchem; conditions: octanol/water
[8] = molecular target: C-C chemokine receptor type 3 (Homo sapiens) (UniProt P51677); assay: Displacement of radioligand from human CCR3 expressed in recombinant CHOK1 cells at 1 uM after 1 hr; conditions: CHO-K1
[9] = molecular target: Voltage-gated inwardly rectifying potassium channel KCNH2 (Homo sapiens, UniProt Q12809)
Voltage-gated inwardly rectifying potassium channel KCNH2, sequence (Q12809 whole entry): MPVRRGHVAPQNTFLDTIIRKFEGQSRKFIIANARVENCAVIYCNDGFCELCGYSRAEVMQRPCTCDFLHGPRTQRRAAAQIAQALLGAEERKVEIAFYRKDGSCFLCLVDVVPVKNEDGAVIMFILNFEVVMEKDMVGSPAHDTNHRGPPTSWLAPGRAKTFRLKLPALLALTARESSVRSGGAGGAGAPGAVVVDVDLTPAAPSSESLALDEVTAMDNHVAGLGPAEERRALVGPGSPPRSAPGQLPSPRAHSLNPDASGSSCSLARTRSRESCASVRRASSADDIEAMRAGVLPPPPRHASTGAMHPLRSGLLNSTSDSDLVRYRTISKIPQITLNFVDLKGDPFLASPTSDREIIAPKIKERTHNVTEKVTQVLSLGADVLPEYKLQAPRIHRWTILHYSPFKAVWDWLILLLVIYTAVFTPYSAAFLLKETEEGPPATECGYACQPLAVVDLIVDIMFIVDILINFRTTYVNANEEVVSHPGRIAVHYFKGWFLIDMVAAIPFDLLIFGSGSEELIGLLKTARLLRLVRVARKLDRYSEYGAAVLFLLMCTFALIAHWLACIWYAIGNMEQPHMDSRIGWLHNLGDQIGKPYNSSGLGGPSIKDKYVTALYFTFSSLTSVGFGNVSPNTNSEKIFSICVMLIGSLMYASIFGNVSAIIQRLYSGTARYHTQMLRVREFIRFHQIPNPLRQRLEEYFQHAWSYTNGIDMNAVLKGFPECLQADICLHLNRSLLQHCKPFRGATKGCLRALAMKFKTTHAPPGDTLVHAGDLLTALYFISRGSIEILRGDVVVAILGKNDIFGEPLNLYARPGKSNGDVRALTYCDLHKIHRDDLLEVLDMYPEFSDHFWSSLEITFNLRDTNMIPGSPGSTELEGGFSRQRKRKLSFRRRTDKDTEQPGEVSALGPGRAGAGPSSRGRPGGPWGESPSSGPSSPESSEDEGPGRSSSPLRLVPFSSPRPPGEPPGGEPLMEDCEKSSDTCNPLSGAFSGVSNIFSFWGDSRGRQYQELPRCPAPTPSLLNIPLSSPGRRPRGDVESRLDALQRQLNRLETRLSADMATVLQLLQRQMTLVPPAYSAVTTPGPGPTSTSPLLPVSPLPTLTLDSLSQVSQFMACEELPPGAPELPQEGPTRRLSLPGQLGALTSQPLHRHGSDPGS

[10] = in vitro; conditions: human
[11] = in vivo; conditions: rat
[12] = in vivo; conditions: rat; remark: listed apart in the source
[13] = in vivo; conditions: rat; remark: listed apart in the source
[14] = molecular target: T1, Histamine H1 receptor; assay: Antagonist activity at histamine H1 receptor; type: functional
[15] = molecular target: T4, C-C chemokine receptor type 1 (Homo sapiens, UniProt P32246); assay: Antagonist activity at CCR1; type: functional
T4 sequence (P32246 whole entry): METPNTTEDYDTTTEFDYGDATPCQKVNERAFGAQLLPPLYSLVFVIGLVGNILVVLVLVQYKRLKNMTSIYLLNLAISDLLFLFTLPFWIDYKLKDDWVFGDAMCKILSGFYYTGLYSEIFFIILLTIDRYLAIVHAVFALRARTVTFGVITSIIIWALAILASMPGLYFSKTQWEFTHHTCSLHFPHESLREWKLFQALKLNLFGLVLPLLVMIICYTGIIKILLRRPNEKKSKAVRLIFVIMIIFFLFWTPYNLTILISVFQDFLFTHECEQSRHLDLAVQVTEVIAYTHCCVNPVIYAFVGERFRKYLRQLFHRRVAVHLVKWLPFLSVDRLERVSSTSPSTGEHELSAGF

[16] = Oral bioavailability in rat; type: ADME, organism-based; conditions: in vivo

T1 sequence (P35367 whole entry): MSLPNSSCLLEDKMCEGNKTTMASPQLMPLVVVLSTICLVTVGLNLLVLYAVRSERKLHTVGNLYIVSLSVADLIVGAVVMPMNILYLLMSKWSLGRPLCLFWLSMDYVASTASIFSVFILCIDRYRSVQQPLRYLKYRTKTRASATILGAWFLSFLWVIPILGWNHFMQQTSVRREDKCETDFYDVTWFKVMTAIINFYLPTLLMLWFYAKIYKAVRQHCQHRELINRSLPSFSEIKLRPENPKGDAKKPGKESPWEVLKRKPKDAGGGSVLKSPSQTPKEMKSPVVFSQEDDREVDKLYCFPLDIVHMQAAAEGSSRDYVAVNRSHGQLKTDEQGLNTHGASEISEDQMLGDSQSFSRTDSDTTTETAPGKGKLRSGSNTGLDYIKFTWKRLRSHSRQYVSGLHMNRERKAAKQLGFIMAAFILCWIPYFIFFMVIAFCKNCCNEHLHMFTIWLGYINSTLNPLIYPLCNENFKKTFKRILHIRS

Ki [1] [µM] | Ki [2] [µM] | inhibition [3] [%] | microsomal CLint ([5]; liver microsomes) [µL/min/mg] | logD [7] | inhibition [8] [%] | microsomal CLint ([10]; liver microsomes) [µL/min/mg] | Structure (SMILES) | IC50 [9] [µM] | further results
0.2 | 0.0158 | > 70 | 8 | 2.3 | > 70 | – | CS(=O)(=O)c1ccccc1C(=O)NC[C@@H](O)CN1CCC(Oc2ccc(Cl)c(Cl)c2)CC1 | – | hepatocyte CLint [4]: < 3 µL/min/1e6 cells; hepatocyte CLint [6]: < 2 µL/min/1e6 cells
0.00794 | 0.00158 | > 70 | – | 2.9 | > 70 | – | O=C(NC[C@@H](O)CN1CCC(Oc2ccc(Cl)c(Cl)c2)CC1)c1n[nH]c2ccccc12 | 0.251 | –
0.000316 | 0.0316 | > 70 | 22 | > 4.5 | > 70 | < 3 | N#Cc1cccc(OC[C@@H](O)CCN2CCC(Oc3ccc(Cl)c(Cl)c3)CC2)c1 | – | –
0.00398 | 0.00794 | > 70 | – | 3.5 | > 70 | – | O=C(NC[C@@H](O)CN1CCC(Oc2ccc(Cl)c(Cl)c2)CC1)c1cc(=O)[nH]c2ccccc12 | > 10 | –
0.02 | 0.02 | > 70 | – | 3.5 | > 70 | – | N#Cc1cccc(C(=O)NC[C@@H](O)CN2CCC(Oc3ccc(Cl)c(Cl)c3)CC2)c1 | – | microsomal CLint ([5]; microsomes): 25 µL/min/mg; microsomal CLint ([10]; microsomes): 4 µL/min/mg
0.316 | 0.158 | > 70 | – | – | > 70 | < 3 | O[C@@H](CNC1CCN(Cc2ccc(Cl)c(Cl)c2)CC1)COc1ccc2ncsc2c1 | – | –
0.501 | 0.316 | > 70 | 23 | 3.1 | > 70 | – | N#Cc1cccc(OC[C@@H](O)CNC2CCN(Cc3ccc(Cl)c(Cl)c3)CC2)c1 | – | hepatocyte CLint [4]: 7 µL/min/1e6 cells
0.0316 | 0.00251 | > 70 | – | 3.9 | – | – | O=C(NC[C@@H](O)CN1CCC(Oc2ccc(Cl)c(Cl)c2)CC1)c1c[nH]c2ccccc12 | 2 | –
1.26 | 0.0794 | > 70 | < 3 | 1.2 | – | – | CS(=O)(=O)c1ccccc1C(=O)NCC(O)CNC1CCN(Cc2ccc(Cl)c(Cl)c2)CC1 (configuration not stated) | – | half-life [11]: 2.3 h; clearance [12]: 54 mL/min/kg; Vd [13]: 9 L/kg; hepatocyte CLint [4]: 4 µL/min/1e6 cells
0.0158 | 0.2 | > 70 | 19 | 3.3 | > 70 | – | O=C(NC[C@@H](O)CN1CCC(Oc2ccc(Cl)c(Cl)c2)CC1)c1cn2cc(F)ccc2n1 | – | hepatocyte CLint [4]: 7 µL/min/1e6 cells
– | 0.1 | – | – | – | – | – | O=C(Nc1ccccc1OCC(O)CN1CCC(Oc2ccc(Cl)c(Cl)c2)CC1)C1CCC1 (configuration not stated) | – | IC50 [14]: 5.01 µM; Ki [15]: 0.0158 µM
– | – | > 70 | – | – | – | – | O=C(NC[C@@H](O)CN1CCC(Oc2ccc(Cl)c(Cl)c2)CC1)c1c[nH]c(=O)c2ccccc12 | – | IC50 [15]: 5.01 µM
0.0631 | 0.00398 | > 70 | 18 | 3.1 | > 70 | – | COc1cc(C(=O)NC[C@@H](O)CN2CCC(Oc3ccc(Cl)c(Cl)c3)CC2)ccc1N | 0.251 | bioavailability [16]: 30%; half-life [11]: 6.5 h; clearance [12]: 56 mL/min/kg; Vd [13]: 25 L/kg; hepatocyte CLint [4]: 6 µL/min/1e6 cells; hepatocyte CLint [6]: < 2 µL/min/1e6 cells
– | 0.00251 | > 70 | – | 3.2 | > 70 | – | CN(C[C@@H](O)CN1CCC(Oc2ccc(Cl)c(Cl)c2)CC1)C(=O)c1c[nH]c(=O)c2ccccc12 | 2 | –
0.0126 | 0.794 | > 70 | 129 | > 4.5 | – | 3 | N#Cc1cccc(OCCCN2CCC(Oc3ccc(Cl)c(Cl)c3)CC2)c1 | – | –
– | 0.00158 | > 70 | – | 3.7 | – | – | O=C(NC[C@@H](O)CN1CCC(Oc2ccc(Cl)c(Cl)c2)CC1)c1n[nH]c(=O)c2ccccc12 | – | –
– | – | > 70 | 13 | – | – | 7 | N#Cc1cccc(S(=O)(=O)NC[C@@H](O)CN2CCC(Oc3ccc(Cl)c(Cl)c3)CC2)c1 | – | –
0.501 | 0.126 | > 70 | – | – | > 70 | < 3 | N#Cc1ccc(OC[C@@H](O)CNC2CCN(Cc3ccc(Cl)c(Cl)c3)CC2)cc1 | – | –
0.02 | 0.126 | > 70 | 49 | > 4.5 | > 70 | 17 | COc1cccc(SC[C@@H](O)CN2CCC(Oc3ccc(Cl)c(Cl)c3)CC2)c1 | – | –
0.00316 | 0.251 | > 70 | 23 | > 4.5 | – | < 3 | N#Cc1cccc(OC[C@@H](O)CN2CCC(Oc3ccc(Cl)c(Cl)c3)CC2)c1 | – | –
0.1 | 0.251 | > 70 | 20 | 2.9 | > 70 | – | CS(=O)(=O)c1ccc(C(=O)NC[C@@H](O)CN2CCC(Oc3ccc(Cl)c(Cl)c3)CC2)s1 | – | hepatocyte CLint [4]: 3 µL/min/1e6 cells
0.0126 | 0.0126 | > 70 | – | 3.3 | > 70 | – | O=C(NC[C@@H](O)CN1CCC(Oc2ccc(Cl)c(Cl)c2)CC1)c1cnnc2ccccc12 | 6.31 | –
– | 0.00251 | > 70 | – | 4.5 | – | – | O=C(NC[C@@H](O)CN1CCC(Oc2ccc(Cl)c(Cl)c2)CC1)n1c(=O)[nH]c2ccccc21 | 0.501 | –
